These results are taken from ChEMBL document CHEMBL1126353, “Substituted benzamides with conformationally restricted side chains. 4. Hetero-azabicyclo[x.y.0] derivatives as gastric prokinetic agents” (1992).

The source made the active and inactive calls. The calls are words filed in the database; no cut-off is given here.

The subject of one test is Rattus norvegicus. The test can be described thus: Prokinetic activity expressed as ability to increase intragastric pressure in rat on subcutaneous administration. The test is classed as functional.
The target of test [1] is Dopamine receptor (Rattus norvegicus) (UniProt P25115+P19020+P30729+P18901+P61169). The test can be described thus: Dopamine receptor antagonist activity expressed as ability to inhibit apomorphine-induced climbing behavior in rat on subcutaneous administration. The test is classed as functional, organism-based.
Test [2] in a line: Ratio of ability to inhibit apomorphine induced climbing to that of increasing intragastric pressure in rats. The test is classed as functional.
The next test has as its system Canis familiaris. In words: Compound was tested for inhibiting apomorphine-induced emesis in dog up to a dose of 10 mg/kg when administered subcutaneously; E - compound found effective. The class given is functional, organism-based. Further details: dose 10 mg/kg. As to conditions: Canis lupus familiaris.

For the molecule `COc1cc(N)c(Cl)cc1C(=O)NC1CN2CCCCN2C1`, in the test with Rattus norvegicus, the Activity was 0.5 mg/kg. In addition, the median effective dose (ED50) (commonly the dose at which the effect has come halfway, by size or by number of responders) in test [1] is 10 mg/kg. In addition, the Ratio in test [2] came out at 20.

`COc1cc(N)c(Cl)cc1C(=O)NC1CCN2CCCCN2C1` (stereo not drawn) came in with an Activity with Rattus norvegicus of 1 mg/kg. In test [1], this molecule yielded an ED50 of 30 mg/kg. Besides, the Ratio in test [2] turned out to be 30.

The molecule `COc1cc(N)c(Cl)cc1C(=O)NC1CN2CCC(c3ccccc3)CN2C1` (stereo not drawn) displayed an Activity in the test on Rattus norvegicus greater than 1 mg/kg. In addition, in test [1], the ED50 turned out to be 5 mg/kg.

For `COc1cc(N)c(Cl)cc1C(=O)NC1CN2Cc3ccccc3CN2C1`, in the test on Rattus norvegicus, the Activity is greater than 1 mg/kg. Further, it took a dose of 10 mg/kg to reach the 50% effect level in test [1] (ED50).

As to `COc1cc(N)c(Cl)cc1C(=O)NC1CN2CC=CCN2C1`, the Activity in the test with Rattus norvegicus was greater than 1 mg/kg. In test [1], the ED50 is greater than 50 mg/kg.

Take `COc1cc(N)c(Cl)cc1C(=O)NC1CCN2CCSCC2C1` (stereo not drawn): the outcome in the test with Canis familiaris was Active. This molecule also had an Activity in the test with Rattus norvegicus of 1 mg/kg. The ED50 in test [1] is greater than 25 mg/kg.

`COc1cc(N)c(Cl)cc1C(=O)NC1CCN2C(C)COCC2C1` (stereo not drawn): the Activity with Rattus norvegicus came out at 0.2 mg/kg. The 50% effect level in test [1] (ED50) was put at a dose of 40 mg/kg. The Ratio in test [2] is listed as 200.

With `COc1cc(N)c(Cl)cc1C(=O)NC1CCN2CCOCC2C1` (stereo in doubt; 14) [listing 1 of 2 here], in the test on Rattus norvegicus, the Activity is 0.2 mg/kg. In addition, the Ratio in test [2] came out at 350.

With `COc1cc(N)c(Cl)cc1C(=O)NC1CCN2CCOCC2C1` (stereo in doubt; 14) [listing 2 of 2 here], in test [1], the ED50 was 70 mg/kg.

With `COc1cc(N)c(Cl)cc1C(=O)NC1CCN2CCOCC2C1` (stereo in doubt; 15) [listing 1 of 2 here], the Activity in the test on Rattus norvegicus came out at 1 mg/kg. In test [2], the Ratio stood at 30.

In test [1], `COc1cc(N)c(Cl)cc1C(=O)NC1CCN2CCOCC2C1` (stereo in doubt; 15) [listing 2 of 2 here] had a 50% effective dose (ED50) of 30 mg/kg.

For the molecule `COc1cc(N)c(Cl)cc1C(=O)NC1CCCN2CCOCC12` (stereo in doubt; 17) [listing 1 of 2 here], the Activity in the test with Rattus norvegicus is greater than 5 mg/kg.

In test [1], `COc1cc(N)c(Cl)cc1C(=O)NC1CCCN2CCOCC12` (stereo in doubt; 17) [listing 2 of 2 here] yielded an ED50 of 30 mg/kg.

As to `COc1cc(N)c(Cl)cc1C(=O)NC1CCCN2CCOCC12` (stereo in doubt; 18) [listing 1 of 2 here], the Activity in the test on Rattus norvegicus amounted to 1 mg/kg.

The molecule `COc1cc(N)c(Cl)cc1C(=O)NC1CCCN2CCOCC12` (stereo in doubt; 18) [listing 2 of 2 here] had an ED50 in test [1] greater than 25 mg/kg.

Molecule `COc1cc(N)c(Cl)cc1C(=O)NC1CCN2CC[S+]([O-])CC2C1` (stereo in doubt; 21) [listing 1 of 2 here] displayed an Activity with Rattus norvegicus of 5 mg/kg.

Turning to `COc1cc(N)c(Cl)cc1C(=O)NC1CCN2CC[S+]([O-])CC2C1` (stereo in doubt; 21) [listing 2 of 2 here], in test [1], the ED50 is greater than 10 mg/kg.

Molecule `COc1cc(N)c(Cl)cc1C(=O)NC1CCN2CC[S+]([O-])CC2C1` (stereo in doubt; 22) [listing 1 of 2 here] showed an Activity in the test on Rattus norvegicus of 1 mg/kg.

For `COc1cc(N)c(Cl)cc1C(=O)NC1CCN2CC[S+]([O-])CC2C1` (stereo in doubt; 22) [listing 2 of 2 here], in the test with Canis familiaris, the outcome was Active.

Consider `COc1cc(N)c(Cl)cc1C(=O)NC1CCCN2CCSCC12` (stereo in doubt; 23) [listing 1 of 2 here], for which the Activity in the test with Rattus norvegicus is greater than 5 mg/kg.

Take `COc1cc(N)c(Cl)cc1C(=O)NC1CCCN2CCSCC12` (stereo in doubt; 23) [listing 2 of 2 here]: the 50% effect level in test [1] (ED50) was put at a dose of 5 mg/kg.

As to `COc1cc(N)c(Cl)cc1C(=O)NC1CCCN2CCSCC12` (stereo in doubt; 24) [listing 1 of 2 here], the Activity with Rattus norvegicus was found to be 1 mg/kg. Besides, the Ratio in test [2] is on record as 30.

In test [1], `COc1cc(N)c(Cl)cc1C(=O)NC1CCCN2CCSCC12` (stereo in doubt; 24) [listing 2 of 2 here] showed an ED50 of 30 mg/kg.

`COc1cc(N)c(Cl)cc1C(=O)NC1CCN2C(C)CCCC2C1` (stereo not drawn) [BRL-20627]: in the test with Rattus norvegicus, the Activity is 0.5 mg/kg. Besides, in test [1], it took a dose of 25 mg/kg to reach the 50% effect level (ED50). Also, in test [2], the Ratio was 50.

Molecule `CCN(CC)CCNC(=O)c1cc(Cl)c(N)cc1OC` [METOCLOPRAMIDE] yielded an Activity in the test with Rattus norvegicus of 1 mg/kg. In test [1], this molecule came in with an ED50 of 0.8 mg/kg. The Ratio in test [2] came out at 0.8.
